The values below come from PMC7997397, ““Bottom-Up” Strategy for the Identification of Novel Soybean Peptides with Angiotensin-Converting Enzyme Inhibitory Activity” (Journal of Agricultural and Food Chemistry, 2020).

The test system of one series is ACE. Particulars: read-out: IC50 ACE inhibition in vitro, cited from earlier work. An excerpt: It is well-recognized that soybean proteins contain many bioactive peptides exerting multiple health benefits, that is, hypocholesterolemic, antidiabetic, antitumor, and hypotensive activity. […] Moreover, after the hydrolysis of soybean proteins with pepsin, five peptides have been identified showing in vitro and in vivo hypotensive activity. […] Their bl ...

Series [1] concerns the target T1, ACE in human kidney HK-2 cells (Homo sapiens, UniProt P12821).
T1 construct: endogenous in cells; host or cells: HK-2 cells (ATCC)
Briefly: ACE activity cell-based assay (in situ) in HK-2 cells. The conditions noted are these: for IC50: renal HK-2 cells 5 × 10^4/well, 0.1–250 μM, 24 h, 37 °C, ACE activity in cell lysates with fluorescent substrate, mean ± s.d. of three independent experiments in triplicate. Here is the method: (§1) Soy1 and LPYP were tested on Caco-2 and HK2 cells (5 × 10^4/well in black 96-well plates) in 0.1–250.0 μM concentration ranges or vehicle in growth medium for 24 h at 37 °C. For a 2D cell culture on RADA16-Soy1 and RADA-LPYP hydrogels, Caco-2 cells were seeded on the surface of the abovementioned hydrogels at a density of 5 × 10^4/well. On the next day, the ACE inhibitory activity was measured using an ACE1 Activity Assay Kit (BioVision, Milpitas Blvd., Milpitas, CA, USA) following the manufacturer’s protocol. See the “Supporting Information” for further details on Acer activity cell-based assay.
(§2) In particular, Caco-2 and HK-2 cells (5 × 10^4/well) were treated with Soy1 and LPYP (0.1–250 μM) overnight. The following day, cells were lysated and the ACE activity was measured directly in the cell lysates using a fluorescent ACE substrate; in this assay, the fluorescent signal is proportional to the enzyme activity.
(§3) Figure 2 In situ evaluation of the ACE activity. […] Data represent the mean ± s.d. of three independent experiments performed in triplicate. […]
absence of carryover effects. The peptides were identified by comparing their retention times, MS profiles, and MS/MS fragmentation spectra with those of authentic standards.
ACE activity cell-based assay. […] The next day, The ACE inhibitory activity was measured using the ACE1 Activity Assay Kit (Biovision, Milpitas Blvd., Milpitias, CA, USA) following the manufacture’s protocol.
Briefly, cells were scraped in 30.0 μL of ice-cold ACE lysis buffer and transferred in an ice-cold microcentrifuge tube. […] Total proteins were quantified by Bradford method, and 2.0 μg of proteins (the equivalent of 2 μL) were added to 18.0 μL of ACE lysis buffer in each well in a black 96-well plates with clear bottoms. […] Then, 20.0 μL of 4% of ACE substrate (in assay buffer) was added in each well except the background one and the fluorescence (Ex/Em 330/430 nm) was measured in a kinetic mode for 10 min at 37 °C using […]

The target in series [2] is T2, ACE in human intestinal Caco-2 cells (Homo sapiens, UniProt P12821).
T2 construct: endogenous in cells; host or cells: Caco-2 cells (INSERM, Paris)
Briefly: ACE activity cell-based assay (in situ) in Caco-2 cells. Particulars: nondifferentiated Caco-2 cells 5 × 10^4/well, 0.1–250 μM, 24 h, 37 °C; ACE activity in cell lysates with fluorescent substrate; mean ± s.d. of three independent experiments in triplicate. Here is the method: as §1, §2, §3
absence of carryover effects. […]
ACE activity cell-based assay. […] The next day, The ACE inhibitory activity was measured using the ACE1 Activity Assay Kit (Biovision, Milpitas Blvd., Milpitias, CA, USA) following the manufacture’s protocol. […]

Series [3] in a line: In vitro gastrointestinal digestion with pepsin and pancreatin. It counts as in vitro ADME. Particulars: peptide 100 μM; pepsin 1:100 enzyme-to-substrate, pH 2.0, 37 °C, 90 min, then pancreatin 1:50, pH 7.2, 37 °C, 150 min; HPLC-Chip ion trap MS; mean ± s.d. of three independent experiments in triplicate; read-out: degraded after codigestion with pepsin and pancreatin vs undigested peptide. Here is the method:
Pepsin solution (4 mg/mL in NaCl) was added to Soy1 and LPYP (100 μM) at a 1:100 enzyme-to-substrate ratio (pH 2.0). The digestion was conducted at 37 °C for 90 min under continuous stirring, and then, the pH was adjusted to 7.2 with 1 M NaOH in order to inactivate the enzyme. Then, pancreatin (4 mg/mL in H2O) was added at a 1:50 enzyme-to-substrate ratio. After digestion, at 37 °C for 150 min, the enzyme was inactivated by heating at 95 °C for 10 min. Further details regarding the analysis are available in the “Supporting Information”.
Their metabolic propensity to be degraded by peptidases, which are physiologically active along the entire gastrointestinal tract, might dramatically influence the bioactivity of food peptides. The literature provides many studies dealing with the assessment of food bioactive peptide stability to the simulated gastric digestion.[22],[23] In order to in-depth characterize the multifunctional behavior of Soy1 and LPYP, their stability toward the in vitro gastric digestion was assessed using pepsin and pancreatin.
Figure 1 In vitro gastrointestinal digestion. […]
In vitro digestion of Soy1 and LPYP. […] Soy1 and LPYP samples undigested and after digestion were analyzed on a SL IT mass spectrometer interfaced with a HPLC- Chip Cube source (Agilent Technologies, Palo Alto, CA, USA). […] A blank was analyzed between samples to ensure

For series [4], the system named is differentiated Caco-2 cells. Particulars: 2 h of incubation in the apical side of monolayers; cited from earlier work. An excerpt: Mature enterocytes represent the first physiological barrier that bioactive food peptides encounter after ingestion; therefore, their absorption is a dynamic proces ...
Where [5] appears, read: peptides from pepsin hydrolysis of soybean proteins.
The mark [6] stands for this setting: soybean peptides reported in the literature.

Read-outs that look alike come from different tables or passages of the source. Ends that are not written are not given here. Peptide text beside a SMILES is read from it.

Usually IC50 stands for the point on the concentration scale where inhibition reaches its midpoint.

T1 sequence (P12821 30-1306): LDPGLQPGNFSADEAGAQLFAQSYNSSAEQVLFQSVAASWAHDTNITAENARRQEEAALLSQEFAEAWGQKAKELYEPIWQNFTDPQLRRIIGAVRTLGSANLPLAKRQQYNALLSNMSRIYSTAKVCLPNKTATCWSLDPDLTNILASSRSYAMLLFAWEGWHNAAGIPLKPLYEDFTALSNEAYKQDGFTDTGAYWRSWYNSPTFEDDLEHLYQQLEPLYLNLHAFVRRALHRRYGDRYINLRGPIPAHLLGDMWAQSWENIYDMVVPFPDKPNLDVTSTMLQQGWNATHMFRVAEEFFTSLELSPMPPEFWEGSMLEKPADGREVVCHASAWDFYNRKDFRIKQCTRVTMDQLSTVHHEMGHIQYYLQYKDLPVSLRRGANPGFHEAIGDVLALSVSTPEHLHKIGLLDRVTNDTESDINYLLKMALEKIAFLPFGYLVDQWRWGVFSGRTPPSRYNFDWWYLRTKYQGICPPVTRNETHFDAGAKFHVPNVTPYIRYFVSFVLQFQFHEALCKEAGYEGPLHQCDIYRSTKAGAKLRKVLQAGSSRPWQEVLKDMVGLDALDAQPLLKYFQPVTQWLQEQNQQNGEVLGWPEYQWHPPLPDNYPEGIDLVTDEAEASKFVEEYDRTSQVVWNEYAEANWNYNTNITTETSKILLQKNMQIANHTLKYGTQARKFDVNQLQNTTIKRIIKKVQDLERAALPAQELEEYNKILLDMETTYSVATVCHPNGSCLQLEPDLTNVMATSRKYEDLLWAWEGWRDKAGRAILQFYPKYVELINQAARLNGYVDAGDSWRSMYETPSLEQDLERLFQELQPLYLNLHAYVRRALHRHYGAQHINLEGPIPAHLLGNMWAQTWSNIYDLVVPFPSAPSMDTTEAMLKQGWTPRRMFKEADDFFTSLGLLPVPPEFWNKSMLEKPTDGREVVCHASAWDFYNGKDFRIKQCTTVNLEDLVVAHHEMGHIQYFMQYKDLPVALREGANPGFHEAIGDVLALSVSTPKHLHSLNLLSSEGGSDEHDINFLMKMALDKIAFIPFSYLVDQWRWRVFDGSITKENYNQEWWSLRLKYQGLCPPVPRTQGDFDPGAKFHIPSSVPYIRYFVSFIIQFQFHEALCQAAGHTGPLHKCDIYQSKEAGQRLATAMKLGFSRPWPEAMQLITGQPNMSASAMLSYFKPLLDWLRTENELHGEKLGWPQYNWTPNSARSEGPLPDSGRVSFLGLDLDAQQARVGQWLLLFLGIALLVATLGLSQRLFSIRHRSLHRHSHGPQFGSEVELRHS
T2 sequence (P12821 30-1306): as above

Regarding “IYLL [peptide from pepsin hydrolysis of soybean proteins]”, the IC50 in the series on ACE (setting [5]) was 42 µM.

For “YLAGNQ [peptide from pepsin hydrolysis of soybean proteins]”, in the series on ACE (setting [5]), the IC50 is 14 µM.

Turning to LAIPVNKP, the IC50 with ACE (setting [6]) is 70 µM.

Take `CC(C)C[C@H](N)C(=O)N1CCC[C@H]1C(=O)N[C@@H](Cc1ccc(O)cc1)C(=O)N1CCC[C@H]1C(=O)O` [LPYP] (H-LPYP-OH): the IC50 turned out to be 6.8 ± 0.2 µM in series [1] and 5 ± 0.28 µM in series [2]. The metabolised at 4 h, 100 μM in series [3] was 28.5 ± 1.4%.

As for LPHF, the IC50 in the series on ACE (setting [6]) is 670 µM.

Take FFL: in the series with ACE (setting [5]), the IC50 is 37 µM.

As for IAVPTGVA [Soy1, IAVPTGVA], the “relative ACE inhibitory activity, renal (HK-2) vs intestinal (Caco-2) level” value in series [1] (comparison of IC50 values in HK-2 and Caco-2 cells) is on record as “twofold more active at the renal level than at the intestinal level”. The results for the IC50 in series [1] and in series [2] were 6 ± 0.35 µM and 14.7 ± 0.28 µM, respectively. Also, in series [3], the metabolised at 4 h, 100 μM was 27.7 ± 0.3%. Further, in series [4], the “absorption by differentiated Caco-2 cells” value was “better absorbed than LPYP”.

Take “SPYP [peptide from soybean glycinin hydrolysed by Monascus purpureus acid proteinase]”: the IC50 with ACE (setting [6]) was 850 µM.

Take “VMDKPQG [peptide from pepsin hydrolysis of soybean proteins]”: the IC50 in the series on ACE (setting [5]) was 39 µM.
